Entries after “also recorded” stand apart in the source; their conditions may differ. Like-named read-outs stand apart in the source and are kept apart here.
How the values were obtained:
[1] = tested on: cNOTCH1sub; assay: Cell-based γ-secretase cleavage assay, cNOTCH1sub in H4 cells (Aβ-like peptide ELISA); parameters: species or system human; settings: Aβ-like peptide in media, GSI overnight
Protocol: (§1) Using these cell‐based γ‐secretase cleavage assays, we systematically investigated the substrate inhibition profile of BMS‐906024, MK‐0752, PF‐308414, RO4929097, Semagacestat, and DAPT. We treated H4 cells stably expressing cNOTCH1‐4sub with 4 pM to 10 μM of GSIs (Fig 5A and Table 2) and measured the Aβ‐like peptide secreted into the media.
(§2) For the cell‐based assay, all substrates contain a human NOTCH4 signal peptide sequence ([…]), amyloid β peptide (Aβ1–25/K16A) epitope tag followed by the juxtamembrane region (JMD) of the given substrate and a FLAG tag ([…]) at the COOH‐terminal. K16A mutant was created to decrease potential α‐secretase cleavage. The cDNAs were generated by gene synthesis conducted by Genscript. A schematic representation of the substrates is provided in Fig 4A, and sequences of the cDNAs and the proteins are provided in Appendix Fig S6. For clarity, these substrates are referred to as cell‐based assay substrates (e.g., NOTCH1 is cNOTCH1sub). Substrate cDNAs were cloned into pCDNA3.1 (Invitrogen, Carlsbad, CA, USA) for expression in H4 cells (ATCC, Manassas, VA).
(§3) H4 cells were cultured in Opti‐mem media (Thermo‐Fisher) supplemented with Hyclone 6% fetal bovine serum (GE, Logan, Utah, USA) and 1% penicillin/streptomycin (Life Technologies, Grand Island, NY, USA). pCDNA3.1 plasmids containing the substrate cDNAs were transfected into H4 cells using FuGENE HD reagent (Madison, WI, USA). Stable cell lines were established using G418 selection. […] Cells and conditioned media were used for WB, IP, and ELISA.
(§4) Sandwich ELISAs used for Aβ detection were performed as previously described (Murphy et al, 1999; Ran et al, 2014). Briefly, Aβ and Aβ‐like peptides in conditioned media were captured with Ab5 antibody and detected with horseradish peroxidase labeled mAb 4G8 (Biolegend). Synthetic Aβ1‐40 was used as standard. All ELISAs were developed with TMB substrate (KPL, Gaithersburg, Maryland, USA). Bis‐Tris precast gels (Biorad, Hercules, CA, USA) were used for all SDS–PAGE. Monoclonal anti‐FLAG M2 antibody (Sigma) and Aβ1‐16 antibody 6E10 (Covance) were used for Western blotting at 1:1,000 dilution. Anti‐CD74 In‐1 antibody (BD Bioscience, San Jose, CA, USA) was used for A20 cell lysate Western blotting at dilution of 1:1,000. MDA‐MB‐231 cell extracts were prepared by lysing cells in RIPA buffer containing protease and phosphatase inhibitors. The lysates were kept on ice for 30 min and vortexed every 10 min, and then centrifuged at 4°C for 10 min at 1,000 g. The supernatants were collected, and protein concentrations were determined by Bradford Assay. Pan‐NOTCH1 antibody (C‐20) (Santa Cruz Biotechnology) and cleaved NOTCH1 (Val1744) antibody ([…]) were used at 1:500 and 1:100 dilution in the test of endogenous NOTCH1 inhibition with β‐actin expression used as loading control. β‐actin antibody was used at 1:1,000 dilution (Sigma). Band intensities normalized for actin using densitometry analysis with ImageJ Software (NIH, USA).

[2] = target: cNOTCH2sub (Homo sapiens, UniProt P49768); assay: Cell-based γ-secretase cleavage assay, cNOTCH2sub in H4 cells (Aβ-like peptide ELISA); settings: rank among the six GSIs, number in brackets
Protocol: as §1, §2, §3, §4

[3] = tested on: cNOTCH3sub; assay: Cell-based γ-secretase cleavage assay, cNOTCH3sub in H4 cells (Aβ-like peptide ELISA); parameters: species or system human
Protocol: as §1, §2, §3, §4

[4] = tested on: APP; assay: Endogenous APP-CTF accumulation in MDA-MB-231 cells (Western blot); type: cell-based; settings: for APP CTF increase / APP CTF level / accumulation at 100 nM: MDA-MB-231 (231 cells), 100 nM, triplicate; for APP CTF increase: vs DMSO; for concentration from which APP‐CTF process is inhibited: MDA-MB-231, 16 h
Protocol: To extend the study to a more physiological system, we assessed endogenous NOTCH1 cleavage inhibition using the triple‐negative breast cancer line MDA‐MB‐231 (Fig 6A). Full‐length blots are shown in source data for Fig 6. NOTCH1 cleavage was detected by Western blotting using the Cell Signaling neo‐epitope NICD antibody. […] The inhibition of endogenous APP in MDA‐MB‐231 cells was also tested by detecting accumulation of APP COOH‐terminal fragments (APP‐CTFs). […] Figure 6D summarized the APP‐CTF band intensities normalized for DMSO group. The original blots are available in source data for Fig 6.
Values are mean ± SD of three tests. • APP‐CTF Western blot of MDA‐MB‐231 cells treated with indicated concentration of GSIs for 16 h. • Band intensities of APP‐CTF with 0.1 μM GSIs were normalized for DMSO control group. Values are mean ± SD of three tests. Data information: Original blots are provided as source data. All band intensity data are derived from three independent experiments and are analyzed by one‐way ANOVA using GraphPad Prism6 software. All experiments were repeated three times.Source data are available online for this figure.

[5] = tested on: Aβ40; parameters: method as in ref Appendix Table S1 (Gavai et al, 2015; Dovey et al, 2001; Cook et al, 2010; Krop et al, 2012; Wei et al, 2010; Luistro et al, 2009; Mitani et al, 2012); settings: ref Appendix Table S1 (Gavai et al, 2015; Dovey et al, 2001; Cook et al, 2010; Krop et al, 2012; Wei et al, 2010; Luistro et al, 2009; Mitani et al, 2012); read-out: Reported IC50s Aβ40; cited from earlier work
[6] = Aβ-like peptide in media, GSI overnight, read-out: IC50 cNOTCH3sub
[7] = value in parentheses, read-out: IC50 cNOTCH3sub, from curves excluding the Aβ level > 120%

| IC50 [3, 7] [nM] | Structure (SMILES) | IC50 [1] [nM] | rank order of inhibition of cNOTCH2sub [2] | effect on cNOTCH3sub cleavage at low concentrations [3] | IC50 [3, 6] [nM] | APP CTF increase [4] [times] | concentration from which APP‐CTF process is inhibited [4] [nM] | IC50 [5] [nM] | concentration that significantly increases cleavage of the cNOTCH3sub ([3]; potentiation at low inhibitor concentration) [nM] | APP CTF level / accumulation at 100 nM [4] | APP CTF level / accumulation at 100 nM ([4]; listed as MK) |
| --- | --- | --- | --- | --- | --- | --- | --- | --- | --- | --- | --- |
|  | CCC[C@H](N[C@H]1CCc2cc(F)cc(F)c2C1)C(=O)Nc1cn(C(C)(C)CNCC(C)(C)C)cn1 [PF‐3084014] | 0.6 | [1] | potentiates cleavage of NOTCH3 | 1.21 | > 15 | ≥ 20 | 6.2 |  |  |  |
| 6.93 | CC(C)(C(=O)NCC(F)(F)C(F)(F)F)C(=O)N[C@@H]1C(=O)Nc2ccccc2-c2ccccc21 [RO4929097] | 0.46 | [3] |  | 19.8 | > 15 | ≥ 20 | 14 | 0.5 to 2.5 |  |  |
|  | CN1C(=O)[C@@H](NC(=O)[C@H](CCC(F)(F)F)[C@H](CCC(F)(F)F)C(N)=O)N=C(c2ccccc2)c2ccccc21 [BMS‐906024] | 0.29 | [2] |  | 1.14 | > 15 | ≥ 20 | 1.6 |  |  |  |
| 129 | CC(C)[C@H](O)C(=O)N[C@@H](C)C(=O)N[C@@H]1C(=O)N(C)CCc2ccccc21 [Semagacestat] | 7.02 | [4] | potentiate | 391 |  | ≥ 500 | 12.1 |  | hard to see; also recorded: did not significantly increase CTF level |  |

| Structure (SMILES) | IC50 [3, 7] [nM] | IC50 [1] [nM] | rank order of inhibition of cNOTCH2sub [2] | effect on cNOTCH3sub cleavage at low concentrations [3] | IC50 [3, 6] [nM] | APP CTF increase [4] [times] | concentration from which APP‐CTF process is inhibited [4] [nM] | IC50 [5] [nM] | concentration that significantly increases cleavage of the cNOTCH3sub ([3]; potentiation at low inhibitor concentration) [nM] | APP CTF level / accumulation at 100 nM [4] | APP CTF level / accumulation at 100 nM ([4]; listed as MK) |
| --- | --- | --- | --- | --- | --- | --- | --- | --- | --- | --- | --- |
| O=C(O)CC[C@H]1CC[C@@](c2cc(F)ccc2F)(S(=O)(=O)c2ccc(Cl)cc2)CC1 [MK‐0752] | 194 | 87.4 | [5] | increases cNOTCH3sub cleavage at low doses | 370 |  | ≥ 500 | 5 |  | hard to see | did not significantly increase CTF level |

Source: article PMC5494507, “γ‐Secretase inhibitors in cancer clinical trials are pharmacologically and functionally distinct” (EMBO Molecular Medicine, 2017)
